According to US6518278B1, “Carcinostatic substance for compatible administration, process of administrating same and process of rapidly inspecting same” (Debio Pharm S.A., priority 1994, dated 2003):
Entries after “also recorded” stand apart in the source; their conditions may differ.

System: human leutecyte strain cell (RPMI-8402)
Experiment: Extinction effect of compatible administration of l-OHP and a compatible agent on tumor cells (compatible efficiency OE)
Format: cell-based
Settings: for Compatible Effects of l-OHP and Compatible Agent, Simultaneous Administration: both added day 1
Procedure: In the evaluation of the extinction effect of the tumor cells of the respective combinations, a pure extinction effect produced by the compatible administration of the compatible agent and the l-OHP is calculated by subtracting an extinction effect of a control (no carcinostatic substance is employed).
The compatibly administration effect is calculated by employing an Equation (1) described later. When the value (%) calculated by this Equation is between 85 and 115%, the compatible administration effect is evaluated to be an additive effect. When the value is below 85%, it is evaluated to be below the additive effect. When the value is over 115%, it is evaluated to be a synergistic effect, ±15% is a reliability limit or a measurement error.
A target tumor cell was a human leutecyte strain cell (RPMI-8402 of Gibuko K.K.). To these cells was added blood serum of a cow embryo (15%, Gibuko K.K.) to prepare a cell floating liquid of which the number of the cells was 10^6/ml in a cultivation bottle (tradename; Sumiron of Sumitomo Bakelite o., Ltd.) having a volume of 6 ml. A plenty of the cultivation bottles having the cell floating liquid therein were prepared, and the following experiments were conducted while selecting one kind of a compatible agent among cisplatin, 5-FU, irinotecane, adriamycin, etoposide, mitomycin, mitoxantrone, bleomycin, vincristin and vindecin. The time schedules of the controls (no addition of medicines, addition of only the l-OHP and addition of only a compatible agent, and specified in the below items (1) to (4)) and of the compatible administration of the compatible agent and the l-OHP are shown in FIG. 10.
(1) No medicine was added (control).
(2) Only the l-OHP was added at a second day.
(3) A large amount of compatible agents were added at a first day ([…] of the cisplatin, 10 μg/ml of the 5-FU, 0.05 μg/ml of the adriamycin and 1 μg/ml of the etoposide, and for the comparison purpose, 0.05 μg/ml of the vincristin and 0.06 μg/ml of the vindecin). The adding amount of the irinotecano was fixed to 10 μg/ml, and the addition amount of the l-OHP was 5 μg/ml.
(4) A small amount of compatible agents were added at a first day (0.5 μg/ml of the cisplatin, 5 μg/ml of the 5-FU, 0.01 μg/ml of the adriamycin and 0.5 μg/ml of the etoposide, and for the comparison purpose, 0.01 μg/ml of the vincristin and 0.01 μg/ml of the vindecin). The adding amount of the irinotecane was fixed to 10 μg/ml, and the addition amount of the l-OHP was 1 μg/ml.
(5) The l-OHP and a large amount (the same as that of the above item (3) and so forth in the following items) of the compatible agents were simultaneously added at a first day.
(6) The l-OHP and a small amount (the same as that of the above item (4) and so forth in the following items) of the compatible agents were simultaneously added at a first day.
(7) The l-OHP was added at a first day and a large amount of the compatible agents were added at a second day.
(8) The l-OHP was added at a first day and a small amount of the compatible agents were added at a second day.
(9) The l-OHP was added at a first day and a large amount of the compatible agents were added at a third day.
(10) The l-OHP was added at a first day and a small amount of the compatible agents were added at a third day.
(11) The l-OHP was added at a first day and a large amount of the compatible agents were added at a fourth day.
(12) The l-OHP was added at a first day and a small amount of the compatible agents were added at a fourth day.
(13) A large amount of the compatible agents were added at a first day and the l-OHP was added at a second day.
(14) A small amount of the compatible agents were added at a first day and the l-OHP was added at a second day.
(15) A large amount of the compatible agents were added at a first day and the l-OHP was added at a third day.
(16) A small amount of the compatible agents were added at a first day and the l-OHP was added at a third day.

[1] = larger dosage of compatible agent (μg/ml: cisplatin 1, 5-FU 10, irinotecane 10, adriamycin 0.05, vincristin 0.05, vindecin 0.05, etoposide 1, bleomycin 10, mitoxantrone 0.1, mitomycine 1), l-OHP 1 μg/ml (5 μg/ml with irinotecane) added day 1
[2] = larger dosage of compatible agent (μg/ml: cisplatin 1, 5-FU 10, irinotecane 10, adriamycin 0.05, vincristin 0.05, vindecin 0.05, etoposide 1, bleomycin 10, mitoxantrone 0.1, mitomycine 1), l-OHP 1 μg/ml (5 μg/ml with irinotecane)
[3] = larger dosage of compatible agent added day 1 (μg/ml: cisplatin 1, 5-FU 10, irinotecane 10, adriamycin 0.05, vincristin 0.05, vindecin 0.05, etoposide 1, bleomycin 10, mitoxantrone 0.1, mitomycine 1), l-OHP 1 μg/ml (5 μg/ml with irinotecane)
[4] = smaller dosage of compatible agent (μg/ml: cisplatin 0.5, 5-FU 5, irinotecane 10, adriamycin 0.01, vincristin 0.01, vindecin 0.01, etoposide 0.5, bleomycin 1, mitoxantrone 0.05, mitomycine 0.5), l-OHP 1 μg/ml added day 1
[5] = smaller dosage of compatible agent (μg/ml: cisplatin 0.5, 5-FU 5, irinotecane 10, adriamycin 0.01, vincristin 0.01, vindecin 0.01, etoposide 0.5, bleomycin 1, mitoxantrone 0.05, mitomycine 0.5), l-OHP 1 μg/ml
[6] = smaller dosage of compatible agent added day 1 (μg/ml: cisplatin 0.5, 5-FU 5, irinotecane 10, adriamycin 0.01, vincristin 0.01, vindecin 0.01, etoposide 0.5, bleomycin 1, mitoxantrone 0.05, mitomycine 0.5), l-OHP 1 μg/ml

| SMILES | compatible administration effect with l-OHP, summary in words | Compatible Effects of l-OHP and Compatible Agent, Time Lag Administration, Addition Administration of Compatible Agent day 2 [1] | Compatible Effects of l-OHP and Compatible Agent, Time Lag Administration, Addition Administration of Compatible Agent day 3 [1] | Compatible Effects of l-OHP and Compatible Agent, Time Lag Administration, Addition Administration of Compatible Agent day 4 [1] | Compatible Effects of l-OHP and Compatible Agent, Simultaneous Administration [2] | Compatible Effects of l-OHP and Compatible Agent, Time Lag Administration, Addition Administration of l-OHP day 2 [3] | Compatible Effects of l-OHP and Compatible Agent, Time Lag Administration, Addition Administration of l-OHP day 3 [3] | Compatible Effects of l-OHP and Compatible Agent, Time Lag Administration, Addition Administration of l-OHP day 4 [3] | Compatible Effects of l-OHP and Compatible Agent, Time Lag Administration, Addition Administration of Compatible Agent day 2 [4] | Compatible Effects of l-OHP and Compatible Agent, Time Lag Administration, Addition Administration of Compatible Agent day 3 [4] | Compatible Effects of l-OHP and Compatible Agent, Time Lag Administration, Addition Administration of Compatible Agent day 4 [4] | Compatible Effects of l-OHP and Compatible Agent, Simultaneous Administration [5] | Compatible Effects of l-OHP and Compatible Agent, Time Lag Administration, Addition Administration of l-OHP day 2 [6] | Compatible Effects of l-OHP and Compatible Agent, Time Lag Administration, Addition Administration of l-OHP day 3 [6] | Compatible Effects of l-OHP and Compatible Agent, Time Lag Administration, Addition Administration of l-OHP day 4 [6] |
| --- | --- | --- | --- | --- | --- | --- | --- | --- | --- | --- | --- | --- | --- | --- | --- |
| COc1cc([C@@H]2c3cc4c(cc3[C@@H](O[C@@H]3O[C@@H]5CO[C@@H](C)O[C@H]5[C@H](O)[C@H]3O)[C@H]3COC(=O)[C@H]23)OCO4)cc(OC)c1O [etoposide] | the additive effect or the synergistic effect regardless of the administration method and the dosage in almost all the cases; also recorded: synergistic effects can be obtained in almost all the combinations when the l-OHP is added later | ◯ (◯: Additive Effect) | ◯ (◯: Additive Effect) | Δ (Δ: Below Additive Effect) | ◯ (◯: Additive Effect) | • (•: Synergistic Effect) | • (•: Synergistic Effect) | • (•: Synergistic Effect) | ◯ (◯: Additive Effect) | • (•: Synergistic Effect) | ◯ (◯: Additive Effect) | ◯ (◯: Additive Effect) | • (•: Synergistic Effect) | • (•: Synergistic Effect) | • (•: Synergistic Effect) |
| CO[C@@]12[C@H](COC(N)=O)C3=C(C(=O)C(C)=C(N)C3=O)N1C[C@@H]1N[C@@H]12 [mitomycine, mitomycin] | the additive effect or the synergistic effect regardless of the administration method and the dosage in almost all the cases; also recorded: synergistic effects can be obtained in most combinations when the l-OHP is administrated before to the mitomycin | ◯ (◯: Additive Effect) | • (•: Synergistic Effect) | • (•: Synergistic Effect) | ◯ (◯: Additive Effect) | ◯ (◯: Additive Effect) | Δ (Δ: Below Additive Effect) | Δ (Δ: Below Additive Effect) | ◯ (◯: Additive Effect) | • (•: Synergistic Effect) | • (•: Synergistic Effect) | ◯ (◯: Additive Effect) | ◯ (◯: Additive Effect) | Δ (Δ: Below Additive Effect) | ◯ (◯: Additive Effect) |
| COc1cccc2c1C(=O)c1c(O)c3c(c(O)c1C2=O)C[C@@](O)(C(=O)CO)C[C@@H]3O[C@H]1C[C@H](N)[C@H](O)[C@H](C)O1 [adriamycin] | the additive effect or the synergistic effect regardless of the administration method and the dosage in almost all the cases; also recorded: synergistic effects can be obtained in almost all the combinations when the l-OHP is added later | Δ (Δ: Below Additive Effect) | ◯ (◯: Additive Effect) | ◯ (◯: Additive Effect) | ◯ (◯: Additive Effect) | ◯ (◯: Additive Effect) | • (•: Synergistic Effect) | • (•: Synergistic Effect) | Δ (Δ: Below Additive Effect) | • (•: Synergistic Effect) | ◯ (◯: Additive Effect) | ◯ (◯: Additive Effect) | • (•: Synergistic Effect) | ◯ (◯: Additive Effect) | • (•: Synergistic Effect) |
